pKi: −log10 of the molar value.
Experiment: The compound was tested for antagonist activity by selective inhibition of [35S]GTP-gamma-S, binding in Guinea pig caudate stimulated by […] (Opioid receptor delta 1)

SMILES: C[C@H]1CN(C/C=C/c2ccccc2)CC[C@@]1(C)c1cccc(O)c1 [3-[(3R,4R)-3,4-Dimethyl-1-((E)-3-phenyl-allyl)-piperidin-4-yl]-phenol]
- pKi: 8.82

SMILES: Cc1ccccc1/C=C/CN1CC[C@@](C)(c2cccc(O)c2)[C@@H](C)C1 [RTI-5989-25]
- pKi: 9.45

From BindingDB's records for doi:10.1021/jm980063g (Research Triangle Institute, 1998)
